# From patent publication US11779572B1, “Methods of treating gastrointestinal stromal tumors” (Deciphera Pharmaceuticals, LLC, priority 2022, dated 2023)
# Columns and labels:
# GIST [1] = assay: Clinical study in second-line through fourth-line plus GIST, ≥100 mg daily (Example 2): efficacy; format: in vivo, human
# Experimental: Results. Data from 178 GIST patients receiving ripretinib at doses of ≥100 mg daily are noted in Table 2. The table includes investigator-assessed objective response rate (ORR) by best response, disease control rate (DCR) and median progression free survival (mPFS), all of which were determined by Response Evaluation Criteria in Solid Tumors (RECIST) version 1.1.
# In Table 2, (1) indicates overall number of patients (n=178) remains the same as prior data presented at ESMO 2018; based on additional data cleaning, one patient from each of 2nd line and 4th/≥4th line were reclassified as 3rd line patients; (2) refers to median treatment durations were: 2nd line=44 weeks, 3rd line=48 weeks, 4th line=46 weeks and ≥4th line=29 weeks; (3) refers to including 60 patients who elected for intra-patient dose escalation from 150 mg QD to 150 mg BID; and (4) refers to the number of patients including 60 patients from 4th line.
# GIST [2] = assay: Phase 1 study, ripretinib 150 mg QD, second-line through fourth-line plus GIST (Example 3): efficacy; format: in vivo, human; details: for Best response (confirmed only): CR / Best response (confirmed only): PR / Best response (confirmed only): Progressive disease / Best response (confirmed only): Stable disease / ORR, n (95% CI) / PFS, Median: 150 mg QD; for ORR, n (95% CI): CR+PR; for PFS, Median: investigator assessment
# Experimental: Efficacy and safety results from the escalation and expansion phases of a phase 1 study for patients with GIST treated at ripretinib 150 mg QD as the starting dose in 28-day cycles are presented. Local, investigator-assessed Response Evaluation Criteria in Solid Tumors (RECIST 1.1) response assessments were performed every 2 cycles, and patients in the expansion cohorts who progressed per RECIST 1.1 were allowed to dose escalate to 150 mg BID.
# 142 patients with GIST in the escalation and expansion phases were treated at 150 mg QD dose. Number of patients by line of therapy were as follows: 31 2nd line, 28 3rd line, and 83≥4th line patients. 135 patients (95.1%) had KIT-mutant GIST, and 7 patients (4.9%) had PDGFRA-mutant GIST.
# For example, the confirmed-only complete response (CR), partial response (PR), stable disease, and progressive disease are presented in Table 4. The objective response rate data in Table 4 relates to the proportion of patients with CR+PR. The median PFS data in Table 4 refers to progression-free survival per investigator assessment, by line of therapy.
# In Table 4: ^a64 subjects escalated to 150 mg BID among patients with GIST in the 150 mg QD dose group. CI, confidence interval; CR, complete response; NE, not estimable; ORR, objective response rate; PFS, progression-free survival; PR, partial response; SD, […]. Local (investigator) response assessment.
# [3] = Observed clinical PK after single and multiple doses; format: in vivo; details: human, plasma, oral; SD administration, healthy participants
# Experimental: CYP3A4 inactivation parameters and induction parameters were subsequently incorporated in the model to assess the net effect on drug clearance at steady state. Due to the uncertainty in the in vitro CYP3A4 MBI data and CYP3A4 induction data, a series of sensitivity analysis was performed. […] Therefore, the in vitro CYP3A4 interaction data were used in the final model. The simulated profiles of ripretinib and DP-5439 in virtual participants were compared to the clinical data. […] The predicted mean AUC0-12 values for DP-5439 on Day 1 were within 2-fold (majority within 1.5-fold) of the observed values, except for the 250-mg QD dose. The mean AUC0-12 and Cmax values for DP-5439 on Day 15 were under-predicted. […] For example, the reported AUCs for ripretinib and DP-5439 at the 150-mg QD dose level were 1.66 and 5.29, respectively. […] The mechanisms for the accumulation of DP-5439 were unclear.
# [4] = PBPK model of ripretinib and DP-5439 (Simcyp Simulator)
# Excerpt: A PBPK model that included a mechanistic absorption model was developed.
# Thus, potential auto-induction and auto-inhibition effects were captured within the model.
# Single dose (SD) PK data from participants with mild, moderate, and severe HI were used to refine and/or verify the PBPK model. […] Subsequently, the corresponding plasma concentration-time profiles in HI participants were likewise simulated and compared to the observed data.
# Predictions of plasma drug concentration-time profiles, clearance and DDIs were performed in the Simcyp Simulator using a population of virtual participants. The default healthy participant population was applied in all simulations involving healthy participants. […] With the exception of demographic data, all parameter values for the healthy participant population were the same as those used for the North European Caucasian population.
# For simulations involving cancer participants, the North European Caucasian population was used to accommodate the wider age range observed in this population (19 to 87 years old; median 61 years). Weibull age distribution was applied with alpha and beta values of 5.47 and 66.5 years for male participants and 5.22 and 68.57 years for female participants. Age, height and weight distributions for the simulated virtual participant population were consistent with those from the first-in-human dose-escalation study in cancer patients.
# For simulations involving participants with HI, 3 population models have been developed for the Simcyp Simulator and are based on the 3 Child-Pugh categories (CP-A, CP-B and CP-C). […] When reduced hepatic size was also taken into account, overall CYP3A4 expression in CP-A, CP-B and CP-C participants was reduced to 69%, 36% and 20%, respectively, to that of healthy participants.
smiles,measurement,setting,value
CCn1c(=O)c(-c2cc(NC(=O)Nc3ccccc3)c(F)cc2Br)cc2cnc(NC)cc21 [ripretinib],Disease Control Rate at 3 Months,GIST [1]; Fourth-Line (n = 60),73%
same,Median Progression Free Survival (mPFS),GIST [1]; Fourth-Line (n = 60),30 weeks
same,"Objective Response Rate by Best Response, includes unconfirmed",GIST [1]; Fourth-Line (n = 60),15%
same,"Objective Response Rate, confirmed only",GIST [1]; Fourth-Line (n = 60),8%
same,Disease Control Rate at 3 Months,GIST [1]; Second-Line (n = 37),81%
same,Median Progression Free Survival (mPFS),GIST [1]; Second-Line (n = 37),42 weeks
same,"Objective Response Rate, confirmed only",GIST [1]; Second-Line (n = 37),22%
same,"Objective Response Rate by Best Response, includes unconfirmed","GIST [1]; Second-Line (n = 37), ≥100 mg daily, RECIST 1.1, investigator",30%
same,Disease Control Rate at 3 Months,GIST [1]; Third-Line (n = 31),80%
same,Median Progression Free Survival (mPFS),GIST [1]; Third-Line (n = 31),40 weeks
same,"Objective Response Rate by Best Response, includes unconfirmed",GIST [1]; Third-Line (n = 31),23%
same,"Objective Response Rate, confirmed only",GIST [1]; Third-Line (n = 31),13%
same,Disease Control Rate at 3 Months,GIST [1]; ≥Fourth-Line (n = 110),66%
same,Median Progression Free Survival (mPFS),GIST [1]; ≥Fourth-Line (n = 110),24 weeks
same,"Objective Response Rate by Best Response, includes unconfirmed",GIST [1]; ≥Fourth-Line (n = 110),11%
same,"Objective Response Rate, confirmed only",GIST [1]; ≥Fourth-Line (n = 110),7%
same,Best response (confirmed only): CR,GIST [2]; 2nd Line (n = 31),0 n (%)
same,Best response (confirmed only): PR,GIST [2]; 2nd Line (n = 31),6 (19.4) n (%)
same,Best response (confirmed only): Progressive disease,GIST [2]; 2nd Line (n = 31),4 (12.9) n (%)
same,Best response (confirmed only): Stable disease,GIST [2]; 2nd Line (n = 31),21 (67.7) n (%)
same,"ORR, n (95% CI)",GIST [2]; 2nd Line (n = 31),"19.4 (7.5, 37.5)"
same,"PFS, Median",GIST [2]; 2nd Line (n = 31),46.4 weeks
same,Best response (confirmed only): CR,GIST [2]; 3rd Line (n = 28),0 n (%)
same,Best response (confirmed only): PR,GIST [2]; 3rd Line (n = 28),4 (14.3) n (%)
same,Best response (confirmed only): Progressive disease,GIST [2]; 3rd Line (n = 28),6 (21.4) n (%)
same,Best response (confirmed only): Stable disease,GIST [2]; 3rd Line (n = 28),18 (64.3) n (%)
same,"ORR, n (95% CI)",GIST [2]; 3rd Line (n = 28),14.3
same,"PFS, Median",GIST [2]; 3rd Line (n = 28),36.3 weeks
same,Best response (confirmed only): CR,GIST [2]; ≥4th Line (n = 83),0 n (%)
same,Best response (confirmed only): PR,GIST [2]; ≥4th Line (n = 83),6 (7.2) n (%)
same,Best response (confirmed only): Progressive disease,GIST [2]; ≥4th Line (n = 83),22 (26.5) n (%)
same,Best response (confirmed only): Stable disease,GIST [2]; ≥4th Line (n = 83),49 (59.0) n (%)
same,"ORR, n (95% CI)",GIST [2]; ≥4th Line (n = 83),"7.2 (2.7, 15.1)"
same,"PFS, Median",GIST [2]; ≥4th Line (n = 83),23.9 weeks
same,"PFS of second and third-line patients with Exons 9, 11, 13 or 17 KIT mutations",GIST [2]; FIG. 27,comparable PFS
same,clinical benefit after dose escalation to 150 mg BID (PFS1 vs PFS2),"GIST [2]; regardless of line of therapy, FIG. 25",additional clinical benefit
same,half-life,[3],~840 min
same,all predictions relative to observed,[4]; 150 mg QD dose,≤ 1.25 fold
same,predicted mean AUC0-12 and Cmax relative to observed values,"[4]; Day 1 and Day 15, except 250-mg QD dose",≤ 1.5 fold
